Earlier results in EP4135668B1, “SOLID ORAL DOSAGE FORM COMPRISING POMALIDOMIDE” (Tecnimede, Sociedade Técnico-Medicinal, SA, priority 2020, dated 2021).

Details: low aqueous solubility and low permeability active compound

Biopharmaceutics Classification System (BCS) class: Class IV
SMILES: Nc1cccc2c1C(=O)N(C1CCC(=O)NC1=O)C2=O (stereo not shown) [Pomalidomide, 4-amino-2-(2,6-dioxopiperidine-3-yl)isoindoline-l,3-dione]
